{"source": "patent US11427869B2", "about": "“T cell balance gene expression, compositions of matters and methods of use thereof” (THE BROAD INSTITUTE, INC., priority 2015, dated 2022)", "system": "WT Th17 cells", "assay": "Nanostring nCounter Th17 codeset (312 genes), SFA- or control-treated WT Th17 cells", "format": "cell-based, mouse", "conditions": "WT Th17 cells + SFA", "source_text": "Applicants studied the contribution of lipid saturation to Th17 cell pathogenicity. […] Applicants analyzed the expression of a 312 gene signature of Th17 cell differentiation and function (Yosef et al., 2013) in SFA- or control-treated WT Th17 cells and in PUFA- or control-treated CD5L−/− Th17 cells differentiated with TGF-81+IL-6.\nT cell differentiation culture. Naïve CD4+CD44−CD62L+CD25− T cells or Effector memory CD4+CD44+CD62L− were sorted using BD FACSAria sorter and activated with plate-bound anti-CD3 and anti-CD28 antibodies (both at 2 μg/ml) in the presence of cytokines at a concentration of 2.5×10^5 cells/ml. For Th17 differentiation: 2 ng/ml of rhTGFβ1, 2 ng/ml of rhTGFβ3, 25 ng/ml rmIL-6, 20 ng/ml rmIL-18 (all from Miltenyi Biotec) and 20 ng/ml rmIL-23 (R & D systems) were used at various combinations as specified in figures. For Th1 differentiation, 20 ng/ml rmIL-12 (R & D systems); for Th2 differentiation 20 ng/ml rmIL-4 (Miltenyi Biotec); for iTreg differentiation, 2.5 ng/ml of rhTGFβ1 were used (Miltenyi Biotec). For differentiation experiments, cells were harvested at 48 hours. For restimulation experiments, cells were differentiated for 48 hours and resuspended in fresh media with no additional cytokines for 48-72 hours. Cells were re-stimulated with PMA/ionomycin for four hours before analysis for cytokines by intracellular cytokine staining. For experiments with exogenous fatty acid, fatty acids were purchased and resuspended first with serum-free media containing BSA prior being added to culture.\nNanostring nCounter. Nanostring nCounter platform (NanoString Technologies) is used to measure the number of RNA transcripts in RNA samples (FIG. 16I, FIG. 18D). A codeset containing 312 signature genes of Th17 cell differentiation and function as well as 4 additional house-keeping genes were custom-made (Yosef et al., 2013) and used in these experiments. Experimental procedures as detailed by the manufacturer is strictly followed."}
{"smiles": "CCCCCCCCCCCCCCCC(=O)O", "note": "[SFA, palmitic acid]", "values": [{"measurement": "ATF2 expression (Nanostring), normalized to WT", "value": 1.18}, {"measurement": "Abcg2 expression (Nanostring), normalized to WT", "value": 0.77}, {"measurement": "Acvr2a expression (Nanostring), normalized to WT", "value": 0.66}, {"measurement": "Ahr expression (Nanostring), normalized to WT", "value": 0.83}, {"measurement": "Arl5a expression (Nanostring), normalized to WT", "value": 0.93}, {"measurement": "Atf4 expression (Nanostring), normalized to WT", "value": 1.11}, {"measurement": "BC021614 expression (Nanostring), normalized to WT", "value": 0.96}, {"measurement": "Bcl2l11 expression (Nanostring), normalized to WT", "value": 0.82}, {"measurement": "Bcl3 expression (Nanostring), normalized to WT", "value": 0.85}, {"measurement": "Bcl11b expression (Nanostring), normalized to WT", "value": 0.82}, {"measurement": "Bhlhe40 expression (Nanostring), normalized to WT", "value": 1.22}, {"measurement": "Casp3 expression (Nanostring), normalized to WT", "value": 1.21}, {"measurement": "Casp4 expression (Nanostring), normalized to WT", "value": 0.95}, {"measurement": "Ccl1 expression (Nanostring), normalized to WT", "value": 0.58}, {"measurement": "Ccl20 expression (Nanostring), normalized to WT", "value": 0.31}, {"measurement": "Ccr4 expression (Nanostring), normalized to WT", "value": 0.61}, {"measurement": "Ccr8 expression (Nanostring), normalized to WT", "value": 0.74}, {"measurement": "Cd9 expression (Nanostring), normalized to WT", "value": 0.84}, {"measurement": "Cd70 expression (Nanostring), normalized to WT", "value": 0.89}, {"measurement": "Cd83 expression (Nanostring), normalized to WT", "value": 1.23}, {"measurement": "Cd86 expression (Nanostring), normalized to WT", "value": 0.99}, {"measurement": "Cd247 expression (Nanostring), normalized to WT", "value": 0.81}, {"measurement": "Clcf1 expression (Nanostring), normalized to WT", "value": 0.74}, {"measurement": "Csf2 expression (Nanostring), normalized to WT", "value": 0.97}, {"measurement": "Ctla4 expression (Nanostring), normalized to WT", "value": 0.81}, {"measurement": "Cxcl10 expression (Nanostring), normalized to WT", "value": 3.83}, {"measurement": "Cxcr3 expression (Nanostring), normalized to WT", "value": 0.48}, {"measurement": "Cxcr4 expression (Nanostring), normalized to WT", "value": 1.00}, {"measurement": "Cxcr5 expression (Nanostring), normalized to WT", "value": 1.17}, {"measurement": "EBF1 expression (Nanostring), normalized to WT", "value": 0.51}, {"measurement": "Egr2 expression (Nanostring), normalized to WT", "value": 1.53}, {"measurement": "Elk3 expression (Nanostring), normalized to WT", "value": 0.58}, {"measurement": "Ercc5 expression (Nanostring), normalized to WT", "value": 0.90}, {"measurement": "Etv6 expression (Nanostring), normalized to WT", "value": 0.94}, {"measurement": "Faim3 expression (Nanostring), normalized to WT", "value": 0.61}, {"measurement": "Fli1 expression (Nanostring), normalized to WT", "value": 0.84}, {"measurement": "Flna expression (Nanostring), normalized to WT", "value": 0.65}, {"measurement": "Foxo1 expression (Nanostring), normalized to WT", "value": 0.79}, {"measurement": "Foxp1 expression (Nanostring), normalized to WT", "value": 0.77}, {"measurement": "Foxp3 expression (Nanostring), normalized to WT", "value": 0.71}, {"measurement": "Frmd4b expression (Nanostring), normalized to WT", "value": 1.05}, {"measurement": "Fxd7 expression (Nanostring), normalized to WT", "value": 1.07}, {"measurement": "Gap43 expression (Nanostring), normalized to WT", "value": 1.30}, {"measurement": "Gem expression (Nanostring), normalized to WT", "value": 1.00}, {"measurement": "Gimap5 expression (Nanostring), normalized to WT", "value": 1.05}, {"measurement": "Gja1 expression (Nanostring), normalized to WT", "value": 0.94}, {"measurement": "Gmfg expression (Nanostring), normalized to WT", "value": 0.62}, {"measurement": "Grn expression (Nanostring), normalized to WT", "value": 0.78}, {"measurement": "Gusb expression (Nanostring), normalized to WT", "value": 1.02}, {"measurement": "Hip1r expression (Nanostring), normalized to WT", "value": 0.70}, {"measurement": "IL-33 expression (Nanostring), normalized to WT", "value": 1.33}, {"measurement": "Ifih1 expression (Nanostring), normalized to WT", "value": 0.87}, {"measurement": "Ifng expression (Nanostring), normalized to WT", "value": 0.55}, {"measurement": "Ikzf3 expression (Nanostring), normalized to WT", "value": 0.82}, {"measurement": "Il1r1 expression (Nanostring), normalized to WT", "value": 0.61}, {"measurement": "Il2ra expression (Nanostring), normalized to WT", "value": 0.71}, {"measurement": "Il3 expression (Nanostring), normalized to WT", "value": 2.11}, {"measurement": "Il4ra expression (Nanostring), normalized to WT", "value": 0.75}, {"measurement": "Il6st expression (Nanostring), normalized to WT", "value": 0.87}, {"measurement": "Il7r expression (Nanostring), normalized to WT", "value": 0.85}, {"measurement": "Il10 expression (Nanostring), normalized to WT", "value": 0.12}, {"measurement": "Il10ra expression (Nanostring), normalized to WT", "value": 0.71}, {"measurement": "Il12rb1 expression (Nanostring), normalized to WT", "value": 0.39}, {"measurement": "Il12rb2 expression (Nanostring), normalized to WT", "value": 0.88}, {"measurement": "Il17a expression (Nanostring), normalized to WT", "value": 0.96}, {"measurement": "Il17f expression (Nanostring), normalized to WT", "value": 0.90}, {"measurement": "Il21 expression (Nanostring), normalized to WT", "value": 1.64}, {"measurement": "Il23r expression (Nanostring), normalized to WT", "value": 1.12}, {"measurement": "Il27ra expression (Nanostring), normalized to WT", "value": 0.70}, {"measurement": "Inhba expression (Nanostring), normalized to WT", "value": 0.60}, {"measurement": "Irf4 expression (Nanostring), normalized to WT", "value": 0.68}]}
